Patent US11046690B2, “Pyridazinones and methods of use thereof” (Goldfinch Bio, Inc., priority 2018, dated 2021)
pIC50: −log10 of the molar value.

Molecular target: T1, TRPC5 (Homo sapiens, UniProt Q9UL62)
T1 construct: expressed in transfected cells
T1 sequence (Q9UL62 1-973): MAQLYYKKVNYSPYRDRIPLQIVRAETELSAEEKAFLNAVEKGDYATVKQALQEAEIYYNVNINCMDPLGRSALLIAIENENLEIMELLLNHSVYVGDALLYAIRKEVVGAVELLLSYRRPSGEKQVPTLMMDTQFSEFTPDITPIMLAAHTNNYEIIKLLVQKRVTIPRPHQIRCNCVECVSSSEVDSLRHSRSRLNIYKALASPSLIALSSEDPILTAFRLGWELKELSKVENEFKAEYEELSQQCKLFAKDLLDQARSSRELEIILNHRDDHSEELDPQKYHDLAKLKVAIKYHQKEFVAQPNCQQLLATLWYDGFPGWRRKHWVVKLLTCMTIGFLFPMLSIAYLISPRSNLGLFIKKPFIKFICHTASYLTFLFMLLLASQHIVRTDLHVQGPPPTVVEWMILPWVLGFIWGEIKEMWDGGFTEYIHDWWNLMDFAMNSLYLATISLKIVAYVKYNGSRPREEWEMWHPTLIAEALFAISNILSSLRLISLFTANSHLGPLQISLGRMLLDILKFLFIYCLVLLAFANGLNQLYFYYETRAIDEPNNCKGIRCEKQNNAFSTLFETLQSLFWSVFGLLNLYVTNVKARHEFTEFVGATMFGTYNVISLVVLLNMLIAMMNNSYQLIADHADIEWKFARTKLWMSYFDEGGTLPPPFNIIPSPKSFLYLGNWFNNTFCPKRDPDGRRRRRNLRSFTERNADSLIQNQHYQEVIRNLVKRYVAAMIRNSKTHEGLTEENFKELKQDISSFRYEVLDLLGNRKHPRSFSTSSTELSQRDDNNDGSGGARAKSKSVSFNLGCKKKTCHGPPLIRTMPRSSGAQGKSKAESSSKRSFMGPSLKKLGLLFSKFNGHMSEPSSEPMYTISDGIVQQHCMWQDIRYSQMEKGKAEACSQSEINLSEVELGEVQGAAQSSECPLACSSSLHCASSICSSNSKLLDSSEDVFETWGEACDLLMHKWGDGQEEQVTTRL
Experiment: TRPC5 activity assay (FLIPR calcium fluorescence, Riluzole stimulation)
Format: cell-based
Conditions: HEK-TREx hTRPC5 cells, 30 μM Riluzole stimulation; read-out: TRPC5 (IC50 class)
Procedure: ICLN-1633 cells (HEK-TREx hTRPC5) expressing TRPC5 were generated as follows. Commercially available HekTrex-293 cells were seeded at 0.7×10^6 cells/well in a 1×6-well plate 24 hrs prior to transfection using 2 mL cell growth media containing no antibiotics (1× DMEM/high glucose (Hyclone #SH30022.02); 10% fetal bovine serum (Sigma) 2 mM sodium pyruvate, 10 mM HEPES). […] On day 2, 2 μg of plasmid DNA plus 6 μl of Xtreme-GENE HP reagent in Optimem (200 μl total volume) was prepared and incubated for 15 min at room temperature. This plasmid solution was then gently overlayed dropwise onto each well and the plate was gently swirled to mix complex with the media for approximately 30 seconds. Transfected cells were incubated at 37° C. in a 10%/CO2 incubator for 24 hrs. The transfected cells were harvested and transferred into 2×150 mm dishes containing cell growth media with no antibiotics at 37° C.
The next day selection was initiated to generate a stable pool by adding cell growth media containing 150 μg/mL Hygromycin and 5 μg/mL Blasticidin and cells were allowed to grow. Media with the selection agent was changed every 1-2 days as needed to remove dead cells. After 7 days, the hygromycin concentration was reduced to 75 μg/mL and cells growth was allowed to continue.
Single clones were selected as follows. The stable pool was diluted to 10 cells/mL and seeded (100 μl/well) into 24×96 well plates (˜1 cell/well) and allowed to grow for 7 days in cell growth media. Fresh media (100 μl) was added and the cells allowed to grow for another 1-2 weeks and then stored frozen or used immediately.
10-point dose response curves were generated using the Echo-550 acoustic dispenser. Compound source plates were made by serially diluting compound stocks to create 10 mM, 1 mM, and 0.1 mM solutions in DMSO into Echo certified LDV plates. The Echo then serially spotted 100%/DMSO stock solutions into source dose response plates to generate a 4-fold dilution scheme. 100%0/DMSO was added to the spotted dose response plates to bring the final volume to 5 μl. 300 nl of the dose response stock plate was then spotted into pre-incubation and stimulation assay plates. 50 μl of pre-incubation buffer and 100 μl of stimulation buffer was then added to the plates resulting in a final assay test concentration range of 30 μM to 0.0001 μM with a final DMSO concentration of 0.3%.
Human ICLN-1633 cells expressing were plated onto 384 well, black PDL-coated microplates and maintained in TRPC5 growth media the day prior to use for experiments. TRPC5 expression was induced by the application of 1 μg/mL tetracycline at the time of plating. […] Cells are incubated at room temperature, protected from light, for 60-90 minutes. After the incubation period, the dye is removed and replaced with 10 μl of EBSS. Cell, pre-incubation and stimulation plates are loaded onto the FLIPR-II and the assay is initiated. The FLIPR measures a 10 second baseline and then adds 10 μl of 2X compounds (or controls). Changes in fluorescence are monitored for an additional 5 minutes. After the 5 minute pre-incubation, 20 μl of 2X Riluzole (with 1X compound or controls) is added to the cell plate. The final Riluzole stimulation concentration in the assay is 30 μM. After the Riluzole addition, changes in fluorescence are monitored for an additional 5 minutes.
Compound modulation of TRPC5 calcium response was determined as follows. After the Englerin A, fluorescence was monitored for a 5-minute period. The maximum relative fluorescence response (minus the control response of 1 μM of an internal control compound known to maximally block TRPC5 calcium response, the “REF INHIB” in the formula below) was captured and exported from the FLIPR.
Compound effect is calculated as % inhibition using the following formula:
[formula] wherein “RFU” is the relative fluorescent units.

| pIC50 | Structure (SMILES) |
| --- | --- |
| > 7.30 | O=c1[nH]ncc(N2CCc3c(ncnc3Oc3ccc(F)cc3Cl)C2)c1Cl [Compound 104] |
| > 7.30 | CC1Cc2c(ncnc2Oc2ccc(F)cc2Cl)CN1c1cn[nH]c(=O)c1Cl (single isomer, unassigned) [Compound 117] |
